Source: ChEMBL document CHEMBL1156163, “(18)F Labeled benzimidazole derivatives as potential radiotracer for positron emission tomography (PET) tumor imaging” (Bioorg Med Chem, 2010)

Columns and labels:
[1] = Biodistribution in mouse S180 cells xenografted Kunming mouse tumor at 10 to 20 uCi, iv after 30 mins by gamma counting; format: ADME, organism-based, Neoplasm, CCRF S-180; conditions: in vivo, 0.5 h
[2] = Ratio of drug uptake in tumor to blood of mouse S180 cells xenografted Kunming mouse at 10 to 20 uCi, iv after 5 mins by gamma counting; format: ADME, organism-based, CCRF S-180; conditions: tumour
[3] = Biodistribution in mouse S180 cells xenografted Kunming mouse tumor at 10 to 20 uCi, iv after 120 mins by gamma counting; format: ADME, organism-based, Neoplasm, CCRF S-180; conditions: in vivo, 2 h
[4] = Ratio of drug uptake in tumor to blood of mouse S180 cells xenografted Kunming mouse at 10 to 20 uCi, iv after 15 mins by gamma counting; format: ADME, organism-based, CCRF S-180; conditions: tumour, 0.25 h
[5] = Ratio of drug uptake in tumor to muscle of mouse S180 cells xenografted Kunming mouse at 10 to 20 uCi, iv after 15 mins by gamma counting; format: ADME, organism-based, CCRF S-180; conditions: in vivo, 0.25 h
[6] = Biodistribution in mouse S180 cells xenografted Kunming mouse tumor at 10 to 20 uCi, iv after 60 mins by gamma counting; format: ADME, organism-based, Neoplasm, CCRF S-180; conditions: in vivo, 1 h
Lung [7] = test: Biodistribution in mouse S180 cells xenografted Kunming mouse lung at 10 to 20 uCi, iv after 30 mins by gamma counting; format: ADME, organism-based, CCRF S-180; conditions: in vivo, 0.5 h
Kidney [8] = test: Biodistribution in mouse S180 cells xenografted Kunming mouse kidney at 10 to 20 uCi, iv after 60 mins by gamma counting; format: ADME, organism-based, CCRF S-180; conditions: in vivo, 1 h
Pancreas [9] = test: Biodistribution in mouse S180 cells xenografted Kunming mouse pancreas at 10 to 20 uCi, iv after 60 mins by gamma counting; format: ADME, organism-based, CCRF S-180; conditions: in vivo, 1 h
Heart [10] = test: Biodistribution in mouse S180 cells xenografted Kunming mouse heart at 10 to 20 uCi, iv after 60 mins by gamma counting; format: ADME, organism-based, CCRF S-180; conditions: in vivo, 1 h
Kidney [11] = test: Biodistribution in mouse S180 cells xenografted Kunming mouse kidney at 10 to 20 uCi, iv after 5 mins by gamma counting; format: ADME, organism-based, CCRF S-180; conditions: in vivo
[12] = Ratio of drug uptake in tumor to muscle of mouse S180 cells xenografted Kunming mouse at 10 to 20 uCi, iv after 30 mins by gamma counting; format: ADME, organism-based, CCRF S-180; conditions: in vivo, 0.5 h
Brain [13] = test: Biodistribution in mouse S180 cells xenografted Kunming mouse brain at 10 to 20 uCi, iv after 60 mins by gamma counting; format: ADME, organism-based, CCRF S-180; conditions: in vivo, 1 h
[14] = Ratio of drug uptake in tumor to blood of mouse S180 cells xenografted Kunming mouse at 10 to 20 uCi, iv after 60 mins by gamma counting; format: ADME, organism-based, CCRF S-180; conditions: tumour, 1 h
Muscle tissue [15] = test: Biodistribution in mouse S180 cells xenografted Kunming mouse muscle at 10 to 20 uCi, iv after 30 mins by gamma counting; format: ADME, organism-based, CCRF S-180; conditions: in vivo, 0.5 h
[16] = Ratio of drug uptake in tumor to brain of mouse S180 cells xenografted Kunming mouse at 10 to 20 uCi, iv after 15 mins by gamma counting; format: ADME, organism-based, CCRF S-180; conditions: in vivo, 0.25 h
Muscle tissue [17] = test: Biodistribution in mouse S180 cells xenografted Kunming mouse muscle at 10 to 20 uCi, iv after 60 mins by gamma counting; format: ADME, organism-based, CCRF S-180; conditions: in vivo, 1 h
Lung [18] = test: Biodistribution in mouse S180 cells xenografted Kunming mouse lung at 10 to 20 uCi, iv after 120 mins by gamma counting; format: ADME, organism-based, CCRF S-180; conditions: in vivo, 2 h
Liver [19] = test: Biodistribution in mouse S180 cells xenografted Kunming mouse liver at 10 to 20 uCi, iv after 30 mins by gamma counting; format: ADME, organism-based, CCRF S-180; conditions: in vivo, 0.5 h
Heart [20] = test: Biodistribution in mouse S180 cells xenografted Kunming mouse heart at 10 to 20 uCi, iv after 30 mins by gamma counting; format: ADME, organism-based, CCRF S-180; conditions: in vivo, 0.5 h
Liver [21] = test: Biodistribution in mouse S180 cells xenografted Kunming mouse liver at 10 to 20 uCi, iv after 15 mins by gamma counting; format: ADME, organism-based, CCRF S-180; conditions: in vivo, 0.25 h
Heart [22] = test: Biodistribution in mouse S180 cells xenografted Kunming mouse heart at 10 to 20 uCi, iv after 120 mins by gamma counting; format: ADME, organism-based, CCRF S-180; conditions: in vivo, 2 h
Pancreas [23] = test: Biodistribution in mouse S180 cells xenografted Kunming mouse pancreas at 10 to 20 uCi, iv after 5 mins by gamma counting; format: ADME, organism-based, CCRF S-180; conditions: in vivo
Lung [24] = test: Biodistribution in mouse S180 cells xenografted Kunming mouse lung at 10 to 20 uCi, iv after 60 mins by gamma counting; format: ADME, organism-based, CCRF S-180; conditions: in vivo, 1 h
Blood [25] = test: Biodistribution in mouse S180 cells xenografted Kunming mouse blood at 10 to 20 uCi, iv after 5 mins by gamma counting; format: ADME, organism-based, CCRF S-180; conditions: in vivo
[26] = Ratio of drug uptake in tumor to blood of mouse S180 cells xenografted Kunming mouse at 10 to 20 uCi, iv after 120 mins by gamma counting; format: ADME, organism-based, CCRF S-180; conditions: tumour, 2 h
Blood [27] = test: Biodistribution in mouse S180 cells xenografted Kunming mouse blood at 10 to 20 uCi, iv after 60 mins by gamma counting; format: ADME, organism-based, CCRF S-180; conditions: in vivo, 1 h
Pancreas [28] = test: Biodistribution in mouse S180 cells xenografted Kunming mouse pancreas at 10 to 20 uCi, iv after 120 mins by gamma counting; format: ADME, organism-based, CCRF S-180; conditions: in vivo, 2 h
Lung [29] = test: Biodistribution in mouse S180 cells xenografted Kunming mouse lung at 10 to 20 uCi, iv after 5 mins by gamma counting; format: ADME, organism-based, CCRF S-180; conditions: in vivo
Kidney [30] = test: Biodistribution in mouse S180 cells xenografted Kunming mouse kidney at 10 to 20 uCi, iv after 120 mins by gamma counting; format: ADME, organism-based, CCRF S-180; conditions: in vivo, 2 h
Muscle tissue [31] = test: Biodistribution in mouse S180 cells xenografted Kunming mouse muscle at 10 to 20 uCi, iv after 15 mins by gamma counting; format: ADME, organism-based, CCRF S-180; conditions: in vivo, 0.25 h
Lung [32] = test: Biodistribution in mouse S180 cells xenografted Kunming mouse lung at 10 to 20 uCi, iv after 15 mins by gamma counting; format: ADME, organism-based, CCRF S-180; conditions: in vivo, 0.25 h
Kidney [33] = test: Biodistribution in mouse S180 cells xenografted Kunming mouse kidney at 10 to 20 uCi, iv after 30 mins by gamma counting; format: ADME, organism-based, CCRF S-180; conditions: in vivo, 0.5 h
Brain [34] = test: Biodistribution in mouse S180 cells xenografted Kunming mouse brain at 10 to 20 uCi, iv after 120 mins by gamma counting; format: ADME, organism-based, CCRF S-180; conditions: in vivo, 2 h
Brain [35] = test: Biodistribution in mouse S180 cells xenografted Kunming mouse brain at 10 to 20 uCi, iv after 15 mins by gamma counting; format: ADME, organism-based, CCRF S-180; conditions: in vivo, 0.25 h
[36] = Biodistribution in mouse S180 cells xenografted Kunming mouse tumor at 10 to 20 uCi, iv after 15 mins by gamma counting; format: ADME, organism-based, Neoplasm, CCRF S-180; conditions: in vivo, 0.25 h
[37] = Ratio of drug uptake in tumor to brain of mouse S180 cells xenografted Kunming mouse at 10 to 20 uCi, iv after 60 mins by gamma counting; format: ADME, organism-based, CCRF S-180; conditions: in vivo, 1 h
[38] = Ratio of drug uptake in tumor to muscle of mouse S180 cells xenografted Kunming mouse at 10 to 20 uCi, iv after 5 mins by gamma counting; format: ADME, organism-based, CCRF S-180; conditions: in vivo
[39] = Ratio of drug uptake in tumor to muscle of mouse S180 cells xenografted Kunming mouse at 10 to 20 uCi, iv after 120 mins by gamma counting; format: ADME, organism-based, CCRF S-180; conditions: in vivo, 2 h
Heart [40] = test: Biodistribution in mouse S180 cells xenografted Kunming mouse heart at 10 to 20 uCi, iv after 15 mins by gamma counting; format: ADME, organism-based, CCRF S-180; conditions: in vivo, 0.25 h
[41] = Ratio of drug uptake in tumor to brain of mouse S180 cells xenografted Kunming mouse at 10 to 20 uCi, iv after 120 mins by gamma counting; format: ADME, organism-based, CCRF S-180; conditions: in vivo, 2 h
Blood [42] = test: Biodistribution in mouse S180 cells xenografted Kunming mouse blood at 10 to 20 uCi, iv after 15 mins by gamma counting; format: ADME, organism-based, CCRF S-180; conditions: in vivo, 0.25 h
Liver [43] = test: Biodistribution in mouse S180 cells xenografted Kunming mouse liver at 10 to 20 uCi, iv after 60 mins by gamma counting; format: ADME, organism-based, CCRF S-180; conditions: in vivo, 1 h

OC[C@H]1O[C@@H](O)[C@H]([18F])[C@@H](O)[C@@H]1O [FLUDEOXYGLUCOSE-F18]
Drug uptake [1]: 1.86 % ID/g | Ratio [2]: 1.17 | Drug uptake [3]: 1.7 % ID/g | Ratio [4]: 3.42 | Ratio [5]: 1.37 | Drug uptake [6]: 2.16 % ID/g | Drug uptake (Lung [7]): 0.64 % ID/g | Drug uptake (Kidney [8]): 0.54 % ID/g | Drug uptake (Pancreas [9]): 0.83 % ID/g | Drug uptake (Heart [10]): 3.24 % ID/g | Drug uptake (Kidney [11]): 2.16 % ID/g | Ratio [12]: 1.75 | Drug uptake (Brain [13]): 2.11 % ID/g | Ratio [14]: 19.47 | Drug uptake (Muscle tissue [15]): 1.07 % ID/g | Ratio [16]: 0.59 | Drug uptake (Muscle tissue [17]): 0.97 % ID/g | Drug uptake (Lung [18]): 0.52 % ID/g | Drug uptake (Liver [19]): 0.23 % ID/g | Drug uptake (Heart [20]): 2.69 % ID/g | Drug uptake (Liver [21]): 0.47 % ID/g | Drug uptake (Heart [22]): 6.27 % ID/g | Drug uptake (Pancreas [23]): 1.31 % ID/g | Drug uptake (Lung [24]): 0.57 % ID/g | Drug uptake (Blood [25]): 1.09 % ID/g | Ratio [26]: 15.85 | Drug uptake (Blood [27]): 0.11 % ID/g | Drug uptake (Pancreas [28]): 0.78 % ID/g | Drug uptake (Lung [29]): 1.52 % ID/g | Drug uptake (Kidney [30]): 0.25 % ID/g | Drug uptake (Muscle tissue [31]): 1.14 % ID/g | Drug uptake (Lung [32]): 0.77 % ID/g | Drug uptake (Kidney [33]): 0.61 % ID/g | Drug uptake (Brain [34]): 1.28 % ID/g | Drug uptake (Brain [35]): 2.63 % ID/g | Drug uptake [36]: 1.56 % ID/g | Ratio [37]: 1.02 | Ratio [38]: 0.81 | Ratio [39]: 2.2 | Drug uptake (Heart [40]): 2.5 % ID/g | Ratio [41]: 1.33 | Drug uptake (Blood [42]): 0.46 % ID/g | Drug uptake (Liver [43]): 0.22 % ID/g
